Here are results for 9 compounds from US4367339A, “Substituted N-nitroaniline compounds and inorganic and organic salts thereof useful for enhancing auxiliary branching, canopy flowering and crop yield of plant and as lodging inhibitors therefor” (priority 1980, dated 1983).

Structures can show the parent of a compound that is named as a salt.

The test system of this data set is barley (Hordeum vulgare, var. Georgie). Briefly: Antilodging effects on barley. Also on record: key to Tiller formation / Stem stiffness: 5 = no increase over controls, 3 = moderate significant increase. To be noted: for Stem stiffness / Tiller formation: control 5; for Weight Dry: control 5.2; for Weight Fresh: control 49.1; for Height: control 53.1; for Phytotoxicity: three weeks after spraying. Type of data set: in vivo. How it is done:
In this experiment the procedure of Example 7 is repeated excepting that the crop used was barley (Hordeum vulgare, var. Georgie; European lodging prone variety). The plants are treated at the 3-4 leaf stage. Plants are watered prior to treatment and then sprayed to provide the kg/ha rate of test compound desired. After spraying the plants are placed on greenhouse benches and watered and fertilized in accordance with normal greenhouse procedures.
Three weeks after spraying the plants are measured and harvested. All treatments are replicated six times and companions are made against untreated controls.
The following rating system is used:
5=No increase over controls
3=Moderate, significant increase over controls.

For `O=[N+]([O-])Nc1c(Br)cccc1Br` [2,6-Dibromo-N--nitroaniline], under “rate 0.25 kg/ha”, the Stem stiffness was found to be 4, the Tiller formation is 4, the “Weight Dry” value was 6.2 g and the “Weight Fresh” value is 58.3 g. For the setting “rate 0.25 kg/ha”, the Height worked out at 50.5 cm and the Phytotoxicity is recorded as 5 (No increase over controls). In addition, for the setting “rate 0.5 kg/ha”, the Stem stiffness is on record as 4; the Tiller formation is recorded as 3 (Moderate, significant increase over controls.); the “Weight Dry” value is given as 6.9 g; the “Weight Fresh” value was 67.5 g. In addition, for the setting “rate 0.5 kg/ha”, the Height stood at 53.0 cm and the Phytotoxicity is recorded as 5 (No increase over controls). Moreover, for the setting “rate 1.0 kg/ha”, the Stem stiffness amounted to 4; the Tiller formation was 3 (Moderate, significant increase over controls.); the “Weight Dry” value amounted to 5.4 g; the “Weight Fresh” value is reported as 55.8 g. Moreover, for the setting “rate 1.0 kg/ha”, the Height came to 48.3 cm and the Phytotoxicity was 5 (No increase over controls).

Consider `O=[N+]([O-])Nc1ccc(Br)cc1Br` [2,4-Dibromo-N--nitroaniline], for which, for the setting “rate 0.25 kg/ha”, the Stem stiffness is 3 (Moderate, significant increase over controls.); the Tiller formation was determined as 4; the “Weight Dry” value is on record as 7.8 g; the “Weight Fresh” value is on record as 63.5 g. For the same compound, for the setting “rate 0.25 kg/ha”, the Height worked out at 54.7 cm and the Phytotoxicity is 5 (No increase over controls). Also, for the setting “rate 0.5 kg/ha”, the Stem stiffness is 5 (No increase over controls), the Tiller formation was 5 (No increase over controls), the “Weight Dry” value turned out to be 6.7 g and the “Weight Fresh” value is 56.3 g. Further, for the setting “rate 0.5 kg/ha”, the Height is given as 56.0 cm and the Phytotoxicity is recorded as 5 (No increase over controls). For the same compound, where the note is “rate 1.0 kg/ha”, the Stem stiffness is recorded as 5 (No increase over controls), the Tiller formation was 5 (No increase over controls), the “Weight Fresh” value is given as 46.4 g and the Height worked out at 53.3 cm. Further, the Phytotoxicity (rate 1.0 kg/ha) is given as 5 (No increase over controls).

For `O=[N+]([O-])Nc1c(Br)cccc1Br` [Tallowamine compound with 2,6-dibromo-N--nitroaniline], for the setting “rate 0.25 kg/ha”, the Stem stiffness was 4, the Tiller formation is recorded as 5 (No increase over controls), the “Weight Dry” value is on record as 6.8 g and the “Weight Fresh” value was found to be 62.3 g. Also, under “rate 0.25 kg/ha”, the Height is 54.7 cm and the Phytotoxicity is 5 (No increase over controls). Besides, for the setting “rate 0.5 kg/ha”, the Stem stiffness was found to be 4, the Tiller formation was 4, the “Weight Dry” value was 7.5 g and the “Weight Fresh” value is given as 60.1 g. Moreover, where the note is “rate 0.5 kg/ha”, the Height is recorded as 48.5 cm and the Phytotoxicity was 5 (No increase over controls). Moreover, where the note is “rate 1.0 kg/ha”, the Stem stiffness is reported as 4, the Tiller formation stood at 4, the “Weight Fresh” value was determined as 55.9 g and the Height worked out at 48.7 cm. For the same compound, for the setting “rate 1.0 kg/ha”, the Phytotoxicity is on record as 5 (No increase over controls).

Regarding `N#Cc1ccc(N[N+](=O)[O-])c(Br)c1` [2-Bromo-4-cyano-N--nitroaniline], for the setting “rate 0.25 kg/ha”, the Stem stiffness is reported as 5 (No increase over controls), the Tiller formation is 4, the “Weight Dry” value is 7.4 g and the “Weight Fresh” value was determined as 62.2 g. For the setting “rate 0.25 kg/ha”, the Height is reported as 53.0 cm and the Phytotoxicity is 5 (No increase over controls). Also, for the setting “rate 0.5 kg/ha”, the Stem stiffness is 5 (No increase over controls), the Tiller formation worked out at 4, the “Weight Dry” value is 7.0 g and the “Weight Fresh” value is recorded as 59.2 g. For the same compound, under “rate 0.5 kg/ha”, the Height amounted to 53.3 cm and the Phytotoxicity was 5 (No increase over controls). Besides, for the setting “rate 1.0 kg/ha”, the Stem stiffness is given as 5 (No increase over controls), the Tiller formation is 5 (No increase over controls), the “Weight Dry” value is recorded as 7.0 g and the “Weight Fresh” value turned out to be 60.9 g. Moreover, under “rate 1.0 kg/ha”, the Height stood at 53.2 cm and the Phytotoxicity is 5 (No increase over controls).

For the compound `Brn1c(-c2ccccc2)cc(-c2ccccc2)[n+]1Br.O=[N+]([O-])[N-]c1c(Br)cccc1Br` [1,2-Dibromo-3,5-diphenylpyrazolium salt with 2,6-dibromo-N--aci-nitroaniline], under “rate 0.25 kg/ha”, the Stem stiffness is 4, the Tiller formation is 5 (No increase over controls), the “Weight Dry” value is given as 6.9 g and the “Weight Fresh” value was determined as 59.2 g. Besides, where the note is “rate 0.25 kg/ha”, the Height came to 58.2 cm and the Phytotoxicity is on record as 5 (No increase over controls). For the setting “rate 0.5 kg/ha”, the Stem stiffness was 4, the Tiller formation is on record as 5 (No increase over controls), the “Weight Dry” value is listed as 6.7 g and the “Weight Fresh” value worked out at 60.7 g. Under “rate 0.5 kg/ha”, the Height is 53.3 cm and the Phytotoxicity is 5 (No increase over controls). Also, for the setting “rate 1.0 kg/ha”, the Stem stiffness is listed as 3 (Moderate, significant increase over controls.); the Tiller formation was 3 (Moderate, significant increase over controls.); the “Weight Dry” value is 5.9 g; the “Weight Fresh” value came to 60.4 g. Moreover, for the setting “rate 1.0 kg/ha”, the Height turned out to be 52.3 cm and the Phytotoxicity was 5 (No increase over controls).

For `CCc1cccc(C(C)C)c1N[N+](=O)[O-]` [Tallowamine compound with 2-ethyl-6-isopropyl-N--nitroanilin] [Tallowamine compound with 2-ethyl-6-isopropyl-N--nitroaniline], for the setting “rate 0.25 kg/ha”, the Stem stiffness turned out to be 4, the Tiller formation was determined as 4, the “Weight Fresh” value is 49.2 g and the Height came out at 45.0 cm. The Phytotoxicity (rate 0.25 kg/ha) is recorded as 5 (No increase over controls). Also, under “rate 0.5 kg/ha”, the Stem stiffness stood at 4, the Tiller formation turned out to be 4, the “Weight Fresh” value came to 47.1 g and the Height is given as 41.7 cm. The Phytotoxicity (rate 0.5 kg/ha) was 5 (No increase over controls). Under “rate 1.0 kg/ha”, the Stem stiffness is 4, the Tiller formation was 4, the “Weight Fresh” value is on record as 52.4 g and the Height was determined as 45.7 cm. Further, the Phytotoxicity (rate 1.0 kg/ha) is reported as 5 (No increase over controls).

As to `Cn1c(-c2ccccc2)cc(-c2ccccc2)[n+]1C.O=[N+]([O-])[N-]c1ccccc1Br` [1,2-Dimethyl-3,5-diphenylpyrazolium salt with 2-Bromo-N--aci-nitroaniline], under “rate 0.25 kg/ha”, the Stem stiffness was found to be 4, the Tiller formation is listed as 4, the “Weight Fresh” value came to 51.0 g and the Height turned out to be 52.5 cm. Also, the Phytotoxicity (rate 0.25 kg/ha) is reported as 5 (No increase over controls). Moreover, for the setting “rate 0.5 kg/ha”, the Stem stiffness is 5 (No increase over controls), the Tiller formation is reported as 5 (No increase over controls), the “Weight Fresh” value was 53.5 g and the Height was 50.6 cm. Further, for the setting “rate 0.5 kg/ha”, the Phytotoxicity is given as 5 (No increase over controls). Under “rate 1.0 kg/ha”, the Stem stiffness is reported as 5 (No increase over controls), the Tiller formation is on record as 5 (No increase over controls), the “Weight Fresh” value is listed as 47.4 g and the Height was found to be 50.0 cm. The Phytotoxicity (rate 1.0 kg/ha) is 5 (No increase over controls).

As for `CCc1cccc(C(C)C)c1N[N+](=O)[O-]` [2-Ethyl-6-isopropyl-N--nitroaniline], where the note is “rate 0.25 kg/ha”, the Stem stiffness is listed as 4, the Tiller formation came out at 4, the “Weight Fresh” value was determined as 50.5 g and the Height was 47.7 cm. The Phytotoxicity (rate 0.25 kg/ha) is 5 (No increase over controls). Also, under “rate 0.5 kg/ha”, the Stem stiffness worked out at 4; the Tiller formation is listed as 3 (Moderate, significant increase over controls.); the “Weight Dry” value is listed as 5.9 g; the “Weight Fresh” value was found to be 59.3 g. Further, where the note is “rate 0.5 kg/ha”, the Height is 48.7 cm and the Phytotoxicity was 5 (No increase over controls). Besides, under “rate 1.0 kg/ha”, the Stem stiffness is listed as 4, the Tiller formation was 4, the “Weight Dry” value was found to be 5.4 g and the “Weight Fresh” value stood at 56.5 g. For the setting “rate 1.0 kg/ha”, the Height came to 51.0 cm and the Phytotoxicity was 5 (No increase over controls).

As for `O=[N+]([O-])Nc1cccc(Cl)c1Cl` [Sodium salt with 2,3-dichloro-N--nitroaniline], where the note is “rate 0.25 kg/ha”, the Stem stiffness was 5 (No increase over controls), the Tiller formation was 5 (No increase over controls), the “Weight Dry” value is listed as 8.2 g and the “Weight Fresh” value was determined as 60.9 g. Also, under “rate 0.25 kg/ha”, the Height worked out at 53.3 cm and the Phytotoxicity is listed as 5 (No increase over controls). Under “rate 0.5 kg/ha”, the Stem stiffness is given as 5 (No increase over controls), the Tiller formation was 5 (No increase over controls), the “Weight Dry” value is 7.1 g and the “Weight Fresh” value is 58.7 g. Under “rate 0.5 kg/ha”, the Height amounted to 53.8 cm and the Phytotoxicity was 5 (No increase over controls). Further, for the setting “rate 1.0 kg/ha”, the Stem stiffness was 5 (No increase over controls), the Tiller formation is 5 (No increase over controls), the “Weight Dry” value is listed as 6.0 g and the “Weight Fresh” value turned out to be 57.5 g. Also, under “rate 1.0 kg/ha”, the Height is 52.2 cm and the Phytotoxicity is reported as 5 (No increase over controls).
